This is an account of results in patent publication US20140162991A1, “TESTOSTERONE-ANASTROZOLE (T + A) C[…] IN THE NEO-ADJUVANT, LOCAL AND SYSTEMIC THERAPY OF NEWLY DIAGNOSED, […] BREAST CANCER” (priority 2012, published 2014).

The nature of this series: adverse effects and systemic symptoms in treated patients. The note with it: pharmacologic doses of testosterone.

Molecules are shown by their SMILES.

For the molecule `C[C@]12CC[C@H]3[C@@H](CCC4=CC(=O)CC[C@@]43C)[C@@H]1CC[C@@H]2O` [testosterone], the adverse events result is “not associated with adverse events”. In addition, the androgenic side effect entry (applicant's patients) is given as “slight increase in facial hair”.
